Measurements: patent US6410590B1, “Compounds having antitumor activity: process for their preparation and pharmaceutical compositions containing them” (Dr. Reddy's Research Foundation, priority 2000, dated 2002)
Read-outs that look alike come from different tables or passages of the source.

Columns and labels:
HIV-1/MN = assay: Anti HIV activity, P24 antigen in infected PM-1 cells; type: cell-based; conditions: 96 h; for inhibition at 1 µM: Human immunodeficiency virus 1, PM1, 1 μM, read-out: Percent Inhibition
Method: Human CD4+ T cell line PM-1 used in the assay was cultured in RPMI-1640 medium containing 10% Fetal bovine serum, 2 g/L sodium bicarbonate, 100,000 units/L Pencillin-G and 100 mg/L streptomycin. Healthy PM-1 cells were plated on the first day in a 96 well plate at […]. After 24 h HIV-1/MN was added to the culture and incubated for 2 h for infection. Cells were washed twice with PBS to remove the virus in the culture. Different concentrations of DRF compounds ranging from 10^−4 to 10^−8 M were added to the culture and incubated for 96 h. The viability of cells was then assessed by standard MTT assay and the viral antigen P24 levels were estimated by ELSA method. Based on the MTT assay values the P 24 antigen values were corrected.
All the samples were tested in triplicates and the average was used for calculations. AZT was used as standard compound for comparison.

U251 = assay: Sulforhodamine B growth inhibition, CNS panel; type: cell-based, human; conditions: SRB, read-out: GROWTH INHIBITION (GI 50)
Method: (§1) Each test compound was screened against a battery of cell lines representing eight different types of cancer. In a typical procedure 1×10^4 cells were seeded into each well of 96-well plates in 100 μL volume of RPMI-1640 containing antibiotics and 10% FCS.
(§2) The plates were incubated at 37° C. in presence of CO2. After 24 h, test compounds were evaluated at five 10 fold dilutions ranging from 100 to 0.01 μM. To each test well 100 μL of test compound solution was added and medium with vehicle was added to control wells and the plates were further incubated. After 48 h of incubation, plates were terminated by Sulforhodamine B method.
(§3) The optical density which is proportional to protein mass, is then read by automated spectrophotometric plate readers at a wavelength of 515 nm.

DU145 = assay: Sulforhodamine B growth inhibition, prostate panel; type: cell-based, human; conditions: SRB, read-out: GROWTH INHIBITION (GI 50)
Method: as §1, §2, §3

SKOV-3 = assay: Sulforhodamine B growth inhibition, ovarian panel; type: cell-based, human; conditions: SKOV-3, ovarian, 48 h, SRB, read-out: GROWTH INHIBITION (GI 50)
Method: as §1, §2, §3

MCF-7/ADR = assay: Sulforhodamine B growth inhibition, breast panel; type: cell-based, human; conditions: 48 h, SRB, read-out: GROWTH INHIBITION (GI 50)
Method: as §1, §2, §3

Human lymphocytes = assay: Lymphocyte proliferation, tritiated thymidine incorporation; type: cell-based; conditions: 1 μM; PHA-stimulated human lymphocytes
Method: Human lymphocycles were isolated from whole blood by using Ficoll Hypaque Plus (Amersham). On day one, 1 million lymphocytes were seeded into each well of 96 well plate in 100 μL volume of RPMI 1640 medium containing 10% FCS and Phytohemagglutitin A at 10 μg/ml concentration. Plates were incubated at 37° C. in CO2 incubator for 24 h. Test compounds at various concentrations were added to test wells and only medium with vehicle was added to control wells. After 48 h of incubation […] of tritiated thymidine was added to each well. After 24 h of thymidine addition the cells were harvested and the incorporated radioactivity was determined.
Stimulation index (si) was calculated using the formula, […]

A498 = assay: Sulforhodamine B growth inhibition, renal panel; type: cell-based, human; conditions: 48 h, SRB, read-out: GROWTH INHIBITION (GI 50)
Method: as §1, §2, §3

SW-620 = assay: Sulforhodamine B growth inhibition, colon panel; type: cell-based, human; conditions: SW-620, colon, 48 h, SRB, read-out: GROWTH INHIBITION (GI 50)
Method: as §1, §2, §3

H522 = assay: Sulforhodamine B growth inhibition, lung panel; type: cell-based, human; conditions: SRB, read-out: GROWTH INHIBITION (GI 50)
Method: as §1, §2, §3

M14 = assay: Sulforhodamine B growth inhibition, melanoma panel; type: cell-based, human; conditions: 48 h, SRB, read-out: GROWTH INHIBITION (GI 50)
Method: as §1, §2, §3

[1] = Plasma triglyceride and body weight reduction in Swiss albino mice; type: in vivo; conditions: for Percentage reduction TG: plasma triglyceride
Method: (b) Plasma triglyceride and body weight reduction in Swiss albino mice Male Swiss albino mice (SAM) were obtained from NIN and housed in DRF animal house. All these animals were maintained under 12 hour light and dark cycle at 25±1° C. Animals were given standard laboratory chow (NIN, Hyderabad, India) and water, ad libitum. SAM of 20-25 g body weight range (Oliver, P., Plancke, M. O., Marzin, D., Clavey, V., Sauzieres, J and Fruchart, J. C. Effects of fenofibrate, gemfibrozil and nicotinic acid on plasma lipoprotein levels in normal and hyperlipidemic mice. Atherosclerosis. 1988. 70: 107-114).
The test compounds were administered orally to Swiss albino mice at 0.3 to 500 mg/kg dose for 6 days. Control mice were treated with vehicle (Chremophore/DMSO/H2O; dose 10 ml/kg).
The blood samples were collected in fed state 1 hour after drug administration on 0 and 6 day of treatment. The blood was collected from the retro-orbital sinus through heparinised capillary in EDTA containing tubes. After centrifugation, plasma sample was separated for triglyceride (Wieland, O. Methods of Enzymatic analysis. Bergermeyer, H. O., Ed., 1963. 211-214; Trinder, P. Ann. Clin. Biochem. 1969. 6: 24-27). Measurement of plasma triglyceride was done using commercial kits (Dr. Reddy's Diagnostic Division, Hyderabad, India).
The formula used to measure percent reduction in blood sugar/triglycerides is given above.

tumor cell lines = conditions: cited from earlier work
KB = conditions: cited from earlier work
[2] = test system: P388 lymphocytic leukemia; conditions: cited from earlier work
UACC62 = assay: Sulforhodamine B growth inhibition, melanoma panel; type: cell-based; conditions: Homo sapiens, UACC-62, 48 h, SRB, read-out: GROWTH INHIBITION (GI 50)
Method: as §1, §2, §3

HIV-1(IIIB) = conditions: cited from earlier work

| Compound | GI50 (U251; Homo sapiens, U-251, 48 h) [µM] | GI50 (DU145; Homo sapiens, DU-145, 48 h) [µM] | GI50 (SKOV-3; Homo sapiens, SK-OV-3) [µM] | GI50 (MCF-7/ADR; Homo sapiens, NCI/ADR-RES) [µM] | GI50 (A498; Homo sapiens) [µM] | GI50 (SW-620; Homo sapiens) [µM] | GI50 (H522; Homo sapiens, NCI-H522, 48 h) [µM] | GI50 (M14; Homo sapiens) [µM] | further results |
| --- | --- | --- | --- | --- | --- | --- | --- | --- | --- |
| 3,14,19-TRIACETYL 8,17-EPOXY ANDROGRAPHOLIDE [Example-2] | – | – | – | – | – | – | – | – | Percent Inhibition (HIV-1/MN; 0.1 μM): 75.31%; Percent Inhibition (HIV-1/MN; 1 μM): 77.25%; GI50 (U251; 48 h): 3 µM; GI50 (DU145; 48 h): 20 µM; GI50 (SKOV-3): 4 µM; GI50 (MCF-7/ADR): 5.5 µM; Stimulation Index (SI) (Human lymphocytes): 32; GI50 (A498): 0.1 µM; GI50 (SW-620): 1 µM; GI50 (H522; 48 h): 20 µM; GI50 (M14): 7.5 µM; Percentage reduction TG ([1]; 250 mg/kg orally for 6 days): 19% |
| C=C1CCC2[C@](C)(CC[C@@H](O)[C@@]2(C)CO)C1/C=C/C1=CCOC1=O (stereo partly drawn) [14-deoxy-11,12-didehydroandrographolide] | – | – | – | – | – | – | – | – | cytotoxic activity in tumor cell lines (tumor cell lines): no cytotoxic activity |
| C=C1CC[C@@H]2[C@](C)(CO)[C@H](O)CC[C@@]2(C)[C@@H]1C/C=C1/C(=O)OC[C@H]1O [Andrographolide] | – | – | – | – | – | – | – | – | cytotoxic activity against KB (KB): potent cytotoxic activity; cytotoxic activity against P388 [2]: potent cytotoxic activity |
| CC1(C)OC[C@@]2(C)C3CCC4(CO4)C(C/C=C4/C(=O)OC[C@H]4O)[C@@]3(C)CC[C@H]2O1 (stereo partly drawn) [Example 5, 8,17-EPOXY ANDROGRAPHOLIDE 3,19-ACETONIDE] | – | – | – | – | – | – | – | – | melting point: 179 °C |
| CCC(=O)OC[C@@]1(C)C2CC[C@]3(CO3)C(C/C=C3/C(=O)OC[C@H]3OC(=O)/C=C/c3ccc4c(c3)OCO4)[C@@]2(C)CC[C@H]1OC(=O)CC (stereo partly drawn) [Example 11, 14-[3′,4′-METHYLENEDIOXYCINNAMOYL]3,19-DIPROPIONYL 8,17-EPOXY ANDROGRAPHOLIDE] | – | – | – | – | – | – | – | – | melting point: 76.7 °C |
| C[C@]12CC[C@@H](OC(=O)CCl)[C@@](C)(COC(=O)CCl)C1CC[C@]1(CO1)C2C/C=C1/C(=O)OC[C@H]1OC(=O)CCl (stereo partly drawn) [Example-4, 3,14,19-TRIS CHLORO ACETYL 8,17-EPOXY ANDROGRAPHOLIDE] | 0.8 | 4.5 | 0.45 | 0.8 | 15 | 25 | 5.5 | – | GI50 (UACC62): 0.55 µM |
| C[C@]12CC[C@@H](O)[C@@](C)(CO)C1CC[C@]1(CO1)C2C/C=C1/C(=O)OC[C@H]1OC(=O)/C=C/c1ccccc1 (stereo partly drawn) [Example-7, 14-CINNAMOYL 3,19-DIHYDROXY 8,17-EPOXY ANDROGRAPHOLIDE] | 6 | 5.5 | 4 | 2 | 9 | 0.5 | 6 | 1 | inhibition at 1 µM (HIV-1/MN): 68.4%; Stimulation Index (SI) (Human lymphocytes): 25; Percentage reduction Body weight ([1]; 100 mg/kg orally for 6 days): 29%; Percentage reduction TG ([1]; 100 mg/kg orally for 6 days): 42%; Percentage reduction Body weight ([1]; 250 mg/kg orally for 6 days): 13%; Percentage reduction TG ([1]; 250 mg/kg orally for 6 days): 52%; Percentage reduction TG ([1]; 500 mg/kg orally for 6 days): 62% |
| CCC(=O)OC[C@@]1(C)C2CC[C@]3(CO3)C(C/C=C3/C(=O)OC[C@H]3OC(=O)/C=C/c3ccccc3)[C@@]2(C)CC[C@H]1OC(=O)CC (stereo partly drawn) [Example-8, 14-CINNAMOYL 3,19-DIPROPIONYL 8,17-EPOXY ANDROGRAPHOLIDE] | 6 | 4 | 10 | 0.08 | 3 | 2.5 | 20 | 2.5 | – |
| CCC(=O)OC[C@]1(C)C(OC(=O)CC)CC[C@]2(C)C(C/C=C3/C(=O)OCC3OC(=O)/C=C/c3ccc(OC)cc3)[C@]3(CCC12)CO3 (stereo partly drawn) [Example-9, 14-[4′-METHOXYCINNAMOYL]3,19-DIPROPIONYL 8,17-EPOXY ANDROGRAPHOLIDE] | 3 | 2 | 2 | 3 | 3 | 0.6 | 4.8 | 0.75 | – |
| CCC(=O)OC[C@@]1(C)C2CC[C@]3(CO3)C(C/C=C3/C(=O)OC[C@H]3OC(=O)/C=C/c3ccc(OC)c(OC)c3)[C@@]2(C)CC[C@H]1OC(=O)CC (stereo partly drawn) [Example-10, 8,17-EPOXY 14-[3′,4′-DIMETHOXYCINNAMOYL]3,19-DIPROPIONYL ANDROGRAPHOLIDE] | 2 | 2.5 | 2.5 | 1.5 | 3.5 | 0.4 | 7.5 | 0.8 | – |
| CCC(=O)OC[C@@]1(C)C2CC[C@]3(CO3)C(C/C=C3/C(=O)OC[C@H]3OC(=O)CNC(=O)OC(C)(C)C)[C@@]2(C)CC[C@H]1OC(=O)CC (stereo partly drawn) [Example-13, 14-[N-BOC GLYCINYL]3,19-DIPROPIONYL 8,17-EPOXY ANDROGRAPHOLIDE] | – | – | – | – | – | – | – | – | inhibition at 1 µM (HIV-1/MN): 73.9%; Stimulation Index (SI) (Human lymphocytes): 24; Percentage reduction TG ([1]; 250 mg/kg orally for 6 days): 31% |
| C=C1CC[C@@H]2[C@](C)(CO[C@@H]3O[C@H](CO)[C@@H](O)[C@H](O)[C@H]3O)CCC[C@@]2(C)[C@@H]1CCC1=CCOC1=O [neoandrographolide] | – | – | – | – | – | – | – | – | cytotoxic activity in tumor cell lines (tumor cell lines): no cytotoxic activity |
| Dehydroandrographolide Succinic acid monoester [DASM] | – | – | – | – | – | – | – | – | minimal concentration inhibitory to HIV-1(IIIB) (HIV-1(IIIB)): 1.6 to 3.1 µg/mL |
